Results from patent US20160326540A1, “Methods and Compositions Employing a Sulfonylurea-Dependent Stabilization Domain” (PIONEER HI-BRED INTERNATIONAL, INC., priority 2013, published 2016).

Assays:
S. cereviseae BY4742 [1] = assay: GFP fluorescence of wt and L17G repressor::GFP fusions in yeast on agar +/- atc, ethametsulfuron or chlorsulfuron, incl. dose response; format: cell-based, Saccharomyces cereviseae; settings: 5-10 uM atc, destabilized (L17G) fusion, FIG. 7
Source text: Next, we wanted to determine if a similar ligand enhanced protein accumulation effect would translate to our SU repressor backbones. […] Given the number of changes to the parent sequence and the 100% change in ligand preference it was not clear if they would behave in a similar manner. […] This was done by PCR amplifying the above coding regions with primers REPS' and EsR(L3-23) Rev, EsR(L15-20) Rev, or CsR(L4-20) Rev (Table 2), digesting each PCR product with StuI/BamHI and cloning each product into StuI/BamHI digested backbone fragments of pHD1184 and pHD2012 to give both wt and L17G mutant DNA binding domain combinations, respectively for most of the SuR's (schematic in FIG. 4). The resulting vectors (Table 4) were then transformed into S. cereviseae BY4742 as for pHD1184 (above). Each strain was then grown overnight in YPD medium and the cultures arrayed in 96-well format such that there were four repeats of every strain per plate. The array was then stamped onto 40 ml DOBA agar supplemented with 2% galactose, 0.025% casamino acids, and either 10 uM atc, ethametsulfuron, chlorsulfuron or no addition as the control. The plates were grown two days at 30° C. and imaged using a Typhoon laser scanning imager (GE) with excitation and emission set at 488 and 520 nm respectively. […]

S. cereviseae BY4742 [2] = assay: GFP destabilization/re-stabilization assay of TetR::AcGFP fusions in yeast liquid culture +/- atc; format: cell-based, Saccharomyces cereviseae; settings: TetR::AcGFP fusion, galactose induced, 6 hrs growth, FIG. 3
Source text: The third mutation, 122D (Reichheld and Davidson 2006), is a constitutive mutation in the presence or absence of ligand. Both L17G and I22D lie in the DNA binding domain (DBD) whereas G96R is in alpha helix 6 within the ligand binding domain (LBD). To test the effect of these mutations for ligand gated stability a GFP destabilization/re-stabilization assay (FIG. 1) was created. To do this a fusion between the coding regions of TetR B (Wray et al. 1981) and AcGFP (Gurskaya et al. 2003) by PCR amplifying the TetR region from plasmid pVER7568 using primers REPS' and TetR::AcGFP Rev and the AcGFP coding region from plasmid pHD1010 with primers TetR::AcGFP For and AcGFP3′ (Table 2) was created. The PCR products were then combined and subjected to overlap extension PCR using primers REPS' and AcGFP3′. The resulting full length PCR fusion product was then cloned into the Galactose inducible yeast expression vector p415GAL (ATCC#87330) as an XbaI/HindIII fragment. […] 100 ul aliquots of resuspended cells were placed into clear bottom black 96-well plates and their fluorescence determined with a Typhoon Laser Image Scanner (GE: […]). […]

| Substance | GFP response to ligand (dose response) (S. cereviseae BY4742 [1]) [×] | accumulation of GFP compared to wt TetR (S. cereviseae BY4742 [2]) |
| --- | --- | --- |
| TetR(L17G) | ~10 | significant negative impact |
| TetR(G96R) |  | significant negative impact |
